Laboratory results: patent US8198273B2, “Compounds and methods for kinase modulation, and indications therefor” (Plexxikon Inc., priority 2009, dated 2012)

Tests used:
[1] = system: Colo205 xenograft; assay: Colo205 xenograft mouse model, tumor growth inhibition; assay type: in vivo; conditions: COLO 205, 336 h, female nu/nu mice, 10 mg/kg daily for fourteen days
Procedure: Tumor growth is monitored to approximately 100 mg size, and mice are distributed to treatment groups such that the mean tumor burden within a group is within 10% of the overall mean tumor burden. […] Mice are observed daily, with tumor burden and body weights measured twice a week. Animals with tumor burden above 1500-2000 mg and any animals in moribund condition are euthanized. The average tumor growth of vehicle control group mice is compared to the average tumor growth of the test compound mice. Percent tumor growth inhibition is calculated as 100×[(tumor growth control-tumor growth test compound)/tumor growth control].

[2] = molecular target: T1, A-Raf (Homo sapiens, UniProt P10398); assay: A-Raf biochemical kinase inhibition (AlphaScreen, biotin-MEK1 substrate); conditions: 100 μM ATP
T1 sequence (P10398 1-606): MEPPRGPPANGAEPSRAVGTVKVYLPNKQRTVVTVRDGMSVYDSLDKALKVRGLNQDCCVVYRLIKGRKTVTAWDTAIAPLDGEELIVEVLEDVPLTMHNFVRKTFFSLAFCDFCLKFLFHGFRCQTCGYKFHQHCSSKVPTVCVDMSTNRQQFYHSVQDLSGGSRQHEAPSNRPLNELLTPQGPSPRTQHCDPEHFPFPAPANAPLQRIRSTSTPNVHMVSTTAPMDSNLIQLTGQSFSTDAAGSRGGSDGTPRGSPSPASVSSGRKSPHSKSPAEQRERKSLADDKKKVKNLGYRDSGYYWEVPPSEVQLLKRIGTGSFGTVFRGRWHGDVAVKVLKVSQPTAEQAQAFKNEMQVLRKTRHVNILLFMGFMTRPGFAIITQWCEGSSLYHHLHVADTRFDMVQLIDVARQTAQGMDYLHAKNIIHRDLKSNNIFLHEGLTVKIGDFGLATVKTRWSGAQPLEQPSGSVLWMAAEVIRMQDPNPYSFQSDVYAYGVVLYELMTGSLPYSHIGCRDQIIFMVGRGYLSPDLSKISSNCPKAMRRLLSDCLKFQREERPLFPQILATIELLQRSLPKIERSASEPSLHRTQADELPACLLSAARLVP
Procedure: Compounds to be tested are diluted in dimethyl sulfoxide to a concentration of 0.1 mM. These are serially diluted 15 μL into 30 μL of dimethyl sulfoxide seven times in 96 well plates for a total of 8 dilution points, and for each dilution point 1 μL is added to a well of an assay plate. […] The reaction is started with addition of 10 μL of 200 μM ATP (i.e. final 100 μM ATP). […] The plates are incubated for 3 hours at room temperature and read on Envision reader (Perkin Elmer). […] The signal vs. compound concentration is used to determine the IC50.

[3] = system: SKMEL3 melanoma cells (B-Raf V600E); assay: SKMEL3 cell growth inhibition (ATPlite); assay type: cell-based; conditions: Homo sapiens, SK-MEL3, 72 h; SKMEL3, 3 days incubation
Procedure: (§1) Compounds are assessed in a variety of cell based assays. For example human cell lines with B-Raf V600E mutation (A375 melanoma, SKMEL3 melanoma, and COL0205 colon adenocarcinoma), as well as tumorigenic cell lines with wild-type B-RAF (SW620 colon adenocarcinoma) or with Ras mutations (SKMEL2 melanoma and IPC298 melanoma). Similar assays may be used to assess additional tumorigenic cell lines with Ras mutations, including, but not limited to, M202, M207, M243, M244, M296, S117, HCT116, HCT15, DLD1, MiaPaCa, A549, NCI-H23, NCI-H460, HOP62, MDA-MB231, Hs-578T, HL60, MOLT-4, and CCRF-CEM.
(§2) On day 1, cells are counted, then centrifuged in a conical tube for 5 minutes at 1000 rpm. The supernatant is removed and cells are re-suspended as follows: • SW620 (ATCC catalog #CCL-27): resuspend in Leibovitz's L-15 medium, 2 mM L-glutamine, 10% fetal bovine serum to 6×10^4 cells/mL. • A375 (ATCC catalog #CRL-1619): resuspend in Dulbecco's modified Eagle's medium, 4 mM L-glutamine, 4.5 g/L D-glucose, 10% fetal bovine serum to 6×10^4 cells/mL. • COL0205 (ATCC catalog #CCL-222): resuspend in RPMI 1640, 2 mM L-glutamine, 1.5 g/L sodium bicarbonate, 4.5 g/L D-glucose, 10 mM HEPES, 1.0 mM sodium pyruvate, 10% fetal bovine serum to 6×10^4 cells/mL. • SKMEL2 (ATCC catalog #HTB-68): resuspend in Minimum Eagle essential medium, 2 mM L-glutamine, 1.5 g/L sodium bicarbonate, 0.1 mM non-essential amino acids, 1.0 mM sodium pyruvate, 10% fetal bovine serum to 6×10^4 cells/mL. • SKMEL3 (ATCC catalog #HTB-69): resuspend in McCoy's 5A medium, 1.5 mM L-glutamine, 15% fetal bovine serum to 6×10^4 cells/mL. • IPC298 (DSMZ catalog #ACC 251): resuspend in RPMI 1640, 2 mM L-glutamine, 10% fetal bovine serum to 6×10^4 cells/mL.
(§3) The cells are plated, 50 μL in each well of a 96-well dish (Corning 3610) and incubated at 37° C. in 5% CO2 overnight, cells plated to a final concentration of cells as follows:
SKMEL3: 3,000 cells per well.
On day 2, compound at a maximum concentration of 5 mM is serially diluted 1:3 for a total of 8 point titration with DMSO as a control. A 1 μL aliquot of each dilution point and control is added to 249 μL growth media and 50 μL is added to a well containing cells, providing 10 μM compound at the maximum concentration point. The cells are incubated for 3 days at 37° C. in 5% CO2.
(§4) On day 5, ATPlite 1 step Luminescence Assay System (Perkin Elmer #6016739) is brought to room temperature along with the cell cultures. ATPlite is added 25 μL to each well, shake for 2 minutes, and the cells are incubated at room temperature for 10 minutes, then luminescence is read on Safire reader. The measured luminescence correlates directly with cell number, such that the reading as a function of compound concentration is used to determine the IC50 value.
It is understood that the results of these assays may vary as assay conditions are varied. Inhibition levels determined under the conditions described herein represent a relative activity for the compounds tested under the specific conditions employed. The cell based assays are likely to show variability due to the complexity of the system and the sensitivity thereof to any changes in the assay conditions. […] Results for compounds that are tested and show substantially no inhibition below the highest tested concentration are represented as “-” in the tables below. In some instances, the compounds were not tested in all of the assays, or assay results were not valid, as indicated by NA in the tables below.

[4] = system: IPC298 melanoma cells (Ras mutation); assay: IPC298 cell growth inhibition (ATPlite); assay type: cell-based; conditions: Homo sapiens, IPC-298, 72 h; IPC298, 3 days incubation
Procedure: as §1, §2, §3
On day 2, compound at a maximum concentration of 5 mM is serially diluted 1:3 for a total of 8 point titration with DMSO as a control. […]
as §4
It is understood that the results of these assays may vary as assay conditions are varied. Inhibition levels determined under the conditions described herein represent a relative activity for the compounds tested under the specific conditions employed. […]

IC50 [2] [nM] | IC50 [3] [nM] | IC50 [4] [nM] | SMILES | inhibition in vivo at 10 mg/kg [1] [%]
 | < 1000 | < 1000 | COc1ncc(-c2cnc3[nH]cc(C(=O)c4c(F)ccc(NS(=O)(=O)c5ccccc5F)c4F)c3c2)cn1 [P-2041, N-{2,4-Difluoro-3-[5-(2-methoxy-pyrimidin-5-yl)-1H-pyrrolo[2,3-b]pyridine-3-carbonyl]-phenyl}-2-fluoro-benzenesulfonamide] | 
 | < 1000 | < 1000 | COc1ncc(-c2cnc3[nH]cc(C(=O)c4c(F)ccc(NS(=O)(=O)c5cc(F)ccc5F)c4F)c3c2)cn1 [P-2042, N-{2,4-Difluoro-3-[5-(2-methoxy-pyrimidin-5-yl)-1H-pyrrolo[2,3-b]pyridine-3-carbonyl]-phenyl}-2,5-difluoro-benzenesulfonamide] | 
 | < 5000 |  | COc1ncc(-c2cnc3[nH]cc(C(=O)c4c(F)ccc(NS(=O)(=O)c5cccc(F)c5)c4F)c3c2)cn1 [P-2045, N-{2,4-Difluoro-3-[5-(2-methoxy-pyrimidin-5-yl)-1H-pyrrolo[2,3-b]pyridine-3-carbonyl]-phenyl}-3-fluoro-benzenesulfonamide] | 
< 100 |  |  | Cc1cnc2[nH]cc(C(=O)c3c(F)ccc(NS(=O)(=O)c4cccnc4)c3F)c2c1 [P-2069, Pyridine-3-sulfonic acid [2,4-difluoro-3-(5-methyl-1H-pyrrolo[2,3-b]pyridine-3-carbonyl)-phenyl]-amide] | 29
 |  | < 10000 | CCCS(=O)(=O)Nc1ccc(F)c(C(=O)c2c[nH]c3ncc(-c4cnc(SC)nc4)cc23)c1F [P-2189, Propane-1-sulfonic acid {2,4-difluoro-3-[5-(2-methylsulfanyl-pyrimidin-5-yl)-1H-pyrrolo[2,3-b]pyridine-3-carbonyl]-phenyl}-amide] | 

Continued, compound first:

SMILES | IC50 [2] [nM] | IC50 [3] [nM] | IC50 [4] [nM] | inhibition in vivo at 10 mg/kg [1] [%]
N#Cc1cnc2[nH]cc(C(=O)c3c(F)ccc(NS(=O)(=O)c4ccccc4)c3F)c2c1 [P-2046, N-[3-(5-Cyano-1H-pyrrolo[2,3-b]pyridine-3-carbonyl)-2,4-difluoro-phenyl]-benzenesulfonamide] | < 10 |  |  | 70
CCCS(=O)(=O)Nc1ccc(F)c(C(=O)c2c[nH]c3ncc(-c4ccc(OCCN5CCOCC5)nc4)cc23)c1F [P-2232, Propane-1-sulfonic acid (2,4-difluoro-3-{5-[6-(2-morpholin-4-yl-ethoxy)-pyridin-3-yl]-1H-pyrrolo[2,3-b]pyridine-3-carbonyl}-phenyl)-amide] | < 10 |  |  | 54
CCCS(=O)(=O)Nc1ccc(F)c(C(=O)c2c[nH]c3ncc(C#CCOC)cc23)c1F [P-2239, Propane-1-sulfonic acid {2,4-difluoro-3-[5-(3-methoxy-prop-1-ynyl)-1H-pyrrolo[2,3-b]pyridine-3-carbonyl]-phenyl}-amide] | < 10 |  |  | 4
N#Cc1cnc2[nH]cc(C(=O)c3cccc(NS(=O)(=O)c4ccccc4)c3F)c2c1 [P-2056, N-[3-(5-Cyano-1H-pyrrolo[2,3-b]pyridine-3-carbonyl)-2-fluoro-phenyl]-benzenesulfonamide] | < 10 |  |  | 66
CCCS(=O)(=O)Nc1ccc(F)c(C(=O)c2c[nH]c3ncc(-c4cncnc4)cc23)c1F [P-2162, Propane-1-sulfonic acid [2,4-difluoro-3-(5-pyrimidin-5-yl-1H-pyrrolo[2,3-b]pyridine-3-carbonyl)-phenyl]-amide] |  |  |  | 17
CCCS(=O)(=O)Nc1ccc(F)c(C(=O)c2c[nH]c3ncc(-c4ccc(OCCCN(C)C)nc4)cc23)c1F [P-2178, Propane-1-sulfonic acid (3-{5-[6-(3-dimethylamino-propoxy)-pyridin-3-yl]-1H-pyrrolo[2,3-b]pyridine-3-carbonyl}-2,4-difluoro-phenyl)-amide] |  |  |  | 0
N#Cc1cnc2[nH]cc(C(=O)c3c(F)ccc(NS(=O)(=O)c4ccccc4F)c3F)c2c1 [P-2011, N-[3-(5-Cyano-1H-pyrrolo[2,3-b]pyridine-3-carbonyl)-2,4-difluoro-phenyl]-2-fluoro-benzenesulfonamide] | < 10 |  |  | 72
COc1ccnc2[nH]cc(C(=O)c3c(F)ccc(NS(=O)(=O)c4ccccc4F)c3F)c12 [P-2021, N-[2,4-Difluoro-3-(4-methoxy-1H-pyrrolo[2,3-b]pyridine-3-carbonyl)-phenyl]-2-fluoro-benzenesulfonamide] |  |  |  | 35
CCCS(=O)(=O)Nc1ccc(F)c(C(=O)c2c[nH]c3ncc(-c4cnc(C)nc4)cc23)c1F [P-2211, Propane-1-sulfonic acid {2,4-difluoro-3-[5-(2-methyl-pyrimidin-5-yl)-1H-pyrrolo[2,3-b]pyridine-3-carbonyl]-phenyl}-amide] |  |  |  | 0
Cc1cnc2[nH]cc(C(=O)c3c(F)ccc(NS(=O)(=O)c4cc(F)ccc4F)c3F)c2c1 [P-2015, N-[2,4-Difluoro-3-(5-methyl-1H-pyrrolo[2,3-b]pyridine-3-carbonyl)-phenyl]-2,5-difluoro-benzenesulfonamide] | < 10 |  |  | 67
CCCS(=O)(=O)Nc1ccc(F)c(C(=O)c2c[nH]c3ncc(-c4cnc(N5CCCC5)nc4)cc23)c1F [P-2219, Propane-1-sulfonic acid {2,4-difluoro-3-[5-(2-pyrrolidin-1-yl-pyrimidin-5-yl)-1H-pyrrolo[2,3-b]pyridine-3-carbonyl]-phenyl}-amide] |  | < 5000 |  | 
C#Cc1cnc2[nH]cc(C(=O)c3c(F)ccc(NS(=O)(=O)CCC)c3F)c2c1 [P-2260, Propane-1-sulfonic acid [3-(5-ethynyl-1H-pyrrolo[2,3-b]pyridine-3-carbonyl)-2,4-difluoro-phenyl]-amide] | < 10 |  |  | 79
